Source: CN112516145A, “小分子化合物wk369在制备治疗卵巢癌药物中的应用” (East China Normal University, priority 2019, dated 2021)

What was measured:
BCL6 [1] = biological target: T1, BCL6 (Homo sapiens, UniProt P41182); conditions: greater than 50 or even 200; cited from earlier work
[2] = animal level; cited from earlier work
BCL6 [3] = biological target: T1, BCL6; conditions: cited from earlier work
ES-2 cells [4] = experiment: ES-2-luc ovarian cancer intraperitoneal metastasis mouse model; format: in vivo, human ES-2 cells in mouse; conditions: 50mg/kg
P53 = experiment: qRT-PCR of BCL6 downstream gene P53 in ovarian cancer cells; format: cell-based; conditions: ES-2, H08910PM, SKOV3, 24 h
[5] = tested on: BCL6-low-expressing ovarian cancer cell line IGROV-1 (BCL6低表达卵巢癌细胞株); experiment: SRB proliferation assay, BCL6-low ovarian cancer cell line; format: cell-based, human
[6] = biological target: T2, BCL6-SMRT interaction (BCL6片段蛋白与多肽SMRT的相互作用) (Homo sapiens, UniProt P41182); experiment: HTRF assay of inhibition of BCL6 fragment protein - SMRT polypeptide interaction; format: biochemical
T2 construct: 本发明所需BCL6蛋白N端的BTB/POZ结构域序列为; made in house

[7] = tested on: CyclinB1, cdc25C, CyclinD1; experiment: Cell cycle regulatory proteins by electrophoresis (blot), ES-2; format: cell-based, human
CDKN1A = experiment: qRT-PCR of BCL6 downstream gene CDKN1A in ovarian cancer cells; format: cell-based; conditions: ES-2, H08910PM, SKOV3, 24 h
SKOV3 tumor (SKOV3肿瘤) = experiment: SKOV3 subcutaneous xenograft in nude mice, tumor growth; format: in vivo, human SKOV3 cells in nude mouse; conditions: intraperitoneal once daily, about 21 days
[8] = tested on: BCL6 downstream genes ATR, P53, CDKN1A (BCL6下游基因); experiment: qPCR of BCL6 downstream genes in SKOV3 xenograft; format: in vivo, human SKOV3 cells in nude mouse
[9] = mouse, in vivo
PARP [10] = experiment: PARP protein by electrophoresis (blot), SKOV3; format: cell-based, human
SKOV3 cells [11] = experiment: Apoptosis by AnnexinV/PI flow cytometry, SKOV3; format: cell-based, human; conditions: SKOV3, 48 h
[12] = Behaviour and adverse reactions in ES-2 intraperitoneal metastasis mice; conditions: 50mg/kg, continuous dosing, 30 days
SKOV3 cells [13] = experiment: Transwell invasion assay, SKOV3; format: cell-based, human
[14] = Body weight, behaviour and organ HE staining in SKOV3 xenograft mice
SKOV3 cells [15] = experiment: Cell cycle by flow cytometry, SKOV3; format: cell-based, human; conditions: SKOV3, 24 h
[16] = tested on: mouse germinal center formation (小鼠生发中心的形成); experiment: Mouse germinal center formation model; format: in vivo; conditions: 50mg/kg/d, intraperitoneal, 12 days
ES-2 cells [17] = experiment: Scratch lateral migration assay, ES-2; format: cell-based, human; conditions: 1, 5, 10 μM, about 12 h
Ki67 = experiment: Immunohistochemistry of Ki67 in SKOV3 xenograft; format: in vivo, human SKOV3 cells in nude mouse
ES-2 cells [18] = experiment: Apoptosis by AnnexinV/PI flow cytometry, ES-2; format: cell-based, human; conditions: ES-2, 48 h
ATR = experiment: qRT-PCR of BCL6 downstream gene ATR in ovarian cancer cells; format: cell-based; conditions: ES-2, H08910PM, SKOV3, 24 h
[19] = tested on: BCL6-high-expressing ovarian cancer cells ES-2, SKOV3, H08910PM, MCAS, CAOV3, OVCAR8 (BCL6高表达卵巢癌细胞); experiment: Colony formation assay; format: cell-based, human
ES-2 cells [20] = experiment: Cell cycle by flow cytometry, ES-2; format: cell-based, human; conditions: ES-2, 24 h
SKOV3 cells [21] = experiment: Scratch lateral migration assay, SKOV3; format: cell-based, human; conditions: 1, 5, 10 μM, about 12 h
[22] = tested on: CyclinB1, cdc25C, CyclinD1; experiment: Cell cycle regulatory proteins by electrophoresis (blot), SKOV3; format: cell-based, human
[23] = tested on: normal cell lines HAF, L02, NCM460, 293T, PNT1A (正常细胞株); experiment: SRB proliferation assay, normal cell lines; format: cell-based, human; conditions: Fig. 4(C)
[24] = tested on: BCL6 transcriptional repression activity (BCL6的转录抑制活性); experiment: Luciferase reporter gene assay of BCL6 transcriptional repression (293T cells); format: cell-based; conditions: 24 h
PARP [25] = experiment: PARP protein by electrophoresis (blot), ES-2; format: cell-based, human
ES-2 cells [26] = experiment: Transwell invasion assay, ES-2; format: cell-based, human
[27] = tested on: patients with platinum-sensitive recurrent ovarian cancer (铂敏感的复发型卵巢癌患者); conditions: clinical phase II and III; cited from earlier work

O=C(O)CC(C(=O)O)N1C(=O)C(=C2C(=O)Nc3ccc(Br)cc32)SC1=S (stereo not shown) [79-6]
concentration exerting function at molecular and cellular level (BCL6 [1]): > 50 µM

CNC(=O)COc1cc2cc(Nc3nc(N4C[C@H](C)C[C@H](C)C4)ncc3Cl)ccc2n(C)c1=O [BI3802]
absorption [2]: 很难被吸收 | biological activity at animal level (BCL6 [3]): 生物活性差

C[C@@H]1CN(c2ncc(F)c(Nc3ccc4oc(=O)ccc4c3)n2)C[C@H](C)N1 [WK369]
survival rate of mice (ES-2 cells [4]): 有效提高 | intraperitoneal spread and metastasis (ES-2 cells [4]; 30 days): 有效抑制 | tumor growth (bioluminescence) (ES-2 cells [4]; 30 days): 显著降低 | number of tumor nodules on the surface of abdominal organs (liver, spleen, kidney, intestine, ovary) (ES-2 cells [4]; 30 days, compared with control group): 明显减少 | upregulation of P53 expression (P53; 1, 5, 10, 20 μM): 几倍至十几倍 | upregulation of P53 expression compared with FX1 (P53; FX1 20 μM): 更为显著地上调 | IC50 ([5]; BCL6-low-expressing ovarian cancer cells (IGROV-1), 72 h, read-out: half-maximal proliferation inhibition activity): ~16 µM | difference in half-maximal proliferation inhibition activity between BCL6-high and BCL6-low ovarian cancer cell lines ([5]; Fig. 4(D)): 具有显著性差异 | IC50 ([6]; 6His-SMRT 200 nM, BCL6-GST 6.25 nM, room temperature overnight, read-out: half-maximal inhibitory concentration (IC50)): 0.315 µM | fold improvement over FX1 in inhibiting BCL6 fragment protein - SMRT interaction ([6]; WK369 versus positive compound FX1): ~120 fold | CyclinB1 expression [7]: 显著下调 | CyclinD1 expression [7]: 显著下调 | cdc25C expression [7]: 显著下调 | upregulation of CDKN1A expression (CDKN1A; 1, 5, 10, 20 μM, highest): 最高可上调几十倍 | upregulation of CDKN1A expression compared with FX1 (CDKN1A; FX1 20 μM): 更为显著地上调 | inhibition of tumor growth compared with FX1 (50mg/kg) (SKOV3 tumor (SKOV3肿瘤); 25mg/kg): 显著优于阳性化合物FX1 | inhibition of tumor growth, 50mg/kg compared with 25mg/kg (SKOV3 tumor (SKOV3肿瘤); 50mg/kg vs 25mg/kg): 效果显著优于本发明化合物WK36925mg/kg的给药剂量 | tumor proliferation (SKOV3 tumor (SKOV3肿瘤); 50mg/kg): 肿瘤增殖非常缓慢 | inhibition of tumor growth (SKOV3 tumor (SKOV3肿瘤); 25 and 50mg/kg): 有效抑制肿瘤的生长 | upregulation of BCL6 downstream genes in vivo compared with positive compound [8]: 更好地上调 | abnormal behaviour and adverse reactions [9]: 并未发现小鼠异常行为和不良反应 | body weight change compared with blank control [9]: 没有明显变化 | full-length PARP protein (PARP [10]): 显著下调 | truncated PARP protein (PARP [10]): 上调 | induction of apoptosis compared with positive compound (SKOV3 cells [11]): 更显著地诱导 | toxicity [12]: 没有明显毒性 | number of invading cells (SKOV3 cells [13]; SKOV3, 1 μM, 12-24 h): 已显著减少 | cells that invade (SKOV3 cells [13]; SKOV3, 10 μM, 12-24 h): 只有极少数的细胞发生侵袭 | inhibition of invasion (SKOV3 cells [13]; SKOV3, high concentration (FX1 10 μM), WK369 1, 5, 10 μM): 显著抑制 | toxicity to major organs (heart, liver, spleen, lung, kidney), HE staining [14]: 没有明显毒性 | cell cycle arrest at G2M phase (SKOV3 cells [15]): 浓度依赖性地诱导 | decrease in germinal center B cell proportion compared with positive compound [16]: 下降比例更为显著 | inhibition of mouse germinal center formation [16]: 均能抑制小鼠生发中心的形成 | inhibition of migration (ES-2 cells [17]): 浓度依赖性地抑制 | expression of tumor proliferation marker Ki67 (Ki67): 显著降低 | induction of apoptosis compared with positive compound (ES-2 cells [18]): 更显著地诱导 | upregulation of ATR expression (ATR; 1, 5, 10, 20 μM): 几倍至十几倍 | upregulation of ATR expression compared with FX1 (ATR; FX1 20 μM): 更为显著地上调 | inhibition of colony formation compared with FX1 ([19]; BCL6-high-expressing lines): 显著优于阳性化合物FX1 | inhibition of colony formation ([19]; BCL6-high-expressing lines, one week): 很显著的抑制效果 | inhibition of colony formation, BCL6-high compared with BCL6-low ovarian cancer cell lines ([19]; compared with BCL6-low-expressing line): 对BCL6高表达卵巢癌细胞株的抑制效果更为明显 | cell cycle arrest at G2M phase (ES-2 cells [20]): 浓度依赖性地诱导 | inhibition of migration (SKOV3 cells [21]): 浓度依赖性地抑制 | CyclinB1 expression [22]: 显著下调 | CyclinD1 expression [22]: 显著下调 | cdc25C expression [22]: 显著下调 | difference in half-maximal proliferation inhibition activity between human ovarian cancer and human normal cell lines [23]: 具有显著性差异 | BCL6 transcriptional repression activity at 20 μM ([24]; 20 μM): 完全消除 | inhibition of BCL6 transcriptional repression activity ([24]; concentration series, compared with positive compound): 浓度依赖性抑制BCL6的转录抑制活性,效果显著优于阳性化合物 | full-length PARP protein (PARP [25]): 显著下调 | truncated PARP protein (PARP [25]): 上调 | number of invading cells (ES-2 cells [26]; ES-2, 1 μM, 12-24 h): 已显著减少 | cells that invade (ES-2 cells [26]; ES-2, 10 μM, 12-24 h): 只有极少数的细胞发生侵袭 | inhibition of invasion (ES-2 cells [26]; ES-2, high concentration (FX1 10 μM), WK369 1, 5, 10 μM): 显著抑制

O=C(c1cc(Cc2n[nH]c(=O)c3ccccc23)ccc1F)N1CCN(C(=O)C2CC2)CC1 [奥卡帕尼]
overall survival (OS) [27]: 并不能延长
